Experimental findings from patent US11014911B2, “CDK2 inhibitors” (Pfizer Inc., priority 2019, dated 2021) are described below.

In this assay the target is CDK2/Cyclin E1 full length (Homo sapiens (Human), UniProt P24941). The assay is described as follows: CDK2/Cyclin E1 full length mobility shift assay. Format: biochemical.

A word on the Ki: it is the dissociation constant of the complex between target and ligand, obtained from inhibition or displacement. With `CC[C@H](C)NC(=O)O[C@@H]1CC[C@H](c2cc(NC(=O)Cc3cc(OC)ncc3OC)n[nH]2)C1` [Example 358, (1R,3S)-3-(3-{[(2,5-dimethoxypyridin-4-yl)acetyl]amino}-1H-pyrazol-5-yl)cyclopentyl (2S)-butan-2-ylcarbamate], the Ki is 1.65 nM.
In the case of `CC[C@H](C)NC(=O)O[C@@H]1CC[C@H](c2cc(NC(=O)Cc3ccc(C(F)(F)F)cn3)n[nH]2)C1` [Example 360, (1R,3S)-3-[3-({[5-(trifluoromethyl)pyridin-2-yl]acetyl}amino)-1H-pyrazol-5-yl]cyclopentyl (2S)-butan-2-ylcarbamate], the Ki was 1.46 nM.
The same measure for `CC[C@H](C)NC(=O)O[C@@H]1CC[C@H](c2cc(NC(=O)Cc3cncc(C(F)(F)F)n3)n[nH]2)C1` [Example 362, (1R,3S)-3-[3-({[6-(trifluoromethyl)pyrazin-2-yl]acetyl}amino)-1H-pyrazol-5-yl]cyclopentyl (2S)-butan-2-ylcarbamate]: 0.84 nM.
For `CC[C@H](C)NC(=O)O[C@@H]1CC[C@H](c2cc(NC(=O)Cc3cnn(C)c3C(F)(F)F)n[nH]2)C1` [Example 365, (1R,3S)-3-[3-({[1-methyl-5-(trifluoromethyl)-1H-pyrazol-4-yl]acetyl}amino)-1H-pyrazol-5-yl]cyclopentyl (2S)-butan-2-ylcarbamate], the Ki turned out to be 2.08 nM.
The same measure for `CC[C@H](C)NC(=O)O[C@@H]1CC[C@H](c2cc(NC(=O)Cc3cn(CC(F)(F)F)nn3)n[nH]2)C1` [Example 366, (1R,3S)-3-[3-({[1-(2,2,2-trifluoroethyl)-1H-1,2,3-triazol-4-yl]acetyl}amino)-1H-pyrazol-5-yl]cyclopentyl (2S)-butan-2-ylcarbamate]: 1.79 nM.
Consider `CC[C@H](C)NC(=O)O[C@@H]1CC[C@H](c2cc(NC(=O)Cc3c(S(C)(=O)=O)c4ccccc4n3C)n[nH]2)C1` [Example 377, (1R,3S)-3-[3-({[1-methyl-3-(methylsulfonyl)-1H-indol-2-yl]acetyl}amino)-1H-pyrazol-5-yl]cyclopentyl (2S)-butan-2-ylcarbamate], for which the Ki stood at 1.14 nM.
To `C[C@@H](CF)NC(=O)O[C@@H]1CC[C@H](c2cc(NC(=O)Cc3cnn(C)c3)n[nH]2)C1` [Example 378, (1R,3S)-3-(3-{[(1-methyl-1H-pyrazol-4-yl)acetyl]amino}-1H-pyrazol-5-yl)cyclopentyl [(2S)-1-fluoropropan-2-yl]carbamate] belongs 0.83 nM; to `Cc1cnc(CC(=O)Nc2cc([C@H]3CC[C@@H](OC(=O)N[C@@H](C)CF)C3)[nH]n2)o1` [Example 379, (1R,3S)-3-(3-{[(5-methyl-1,3-oxazol-2-yl)acetyl]amino}-1H-pyrazol-5-yl)cyclopentyl [(2S)-1-fluoropropan-2-yl]carbamate], 3.05 nM; to `C[C@H](NC(=O)O[C@@H]1CC[C@H](c2cc(NC(=O)Cc3cnn(C)c3)n[nH]2)C1)[C@@H](C)F` [Example 380, (1R,3S)-3-(3-{[(1-methyl-1H-pyrazol-4-yl)acetyl]amino}-1H-pyrazol-5-yl)cyclopentyl [(2S,3R)-3-fluorobutan-2-yl]carbamate], 0.63 nM.
For `Cc1coc(CC(=O)Nc2cc([C@H]3CC[C@@H](OC(=O)N[C@H](C)CC(F)(F)F)C3)[nH]n2)n1` [Example 395, (1R,3S)-3-(3-{[(4-methyl-1,3-oxazol-2-yl)acetyl]amino}-1H-pyrazol-5-yl)cyclopentyl [(2R)-4,4,4-trifluorobutan-2-yl]carbamate], the Ki turned out to be 1.43 nM.
The same measure for `COc1cc(C(=O)Nc2cc([C@H]3CC[C@@H](OC(=O)N[C@H](C)CC(F)(F)F)C3)[nH]n2)n(C)n1` [Example 402, (1R,3S)-3-(3-{[(3-methoxy-1-methyl-1H-pyrazol-5-yl)carbonyl]amino}-1H-pyrazol-5-yl)cyclopentyl [(2R)-4,4,4-trifluorobutan-2-yl]carbamate]: 1.54 nM.
